Data reported in patent US10159675B2, “Cycling therapy using 3-(5-amino-2-methyl-4-oxo-4H-quinazolin-3-yl)-piperidine-2,6-dione” (Celgene Corporation, priority 2015, dated 2018).

Assays:
Memory T cells = test: Clinical study: lymphocyte phenotyping by flow cytometry; type: in vivo, human; details: cycle 1, day 22, peripheral blood, 5/7 d schedule
Procedure: (§1) Sample Analysis • Aiolos was measured by flow cytometry on samples of whole blood drawn at 0 hours (pre-dose) and at 1.5 and 5 hours post-dose on cycle 1, day 1 • Archival or screening formalin-fixed paraffin-embedded (FFPE) tissues were stained for MYC and BCL2 expression6 on a Bond-Max automated slide stainer (Leica Microsystems, Buffalo Grove, Ill.) • Pathology review was performed on a hematoxylin and eosin stained slides to identify the area of DLBCL • RNA extraction and NanoString nCounter Analysis System lymphoma subtyping test (Seattle, Wash.) were performed as reported previously7 on core needle and excisional biopsy samples • For lymphocyte phenotyping, whole blood was drawn pre-dose (baseline) and 1.5 hours post-dose on cycle 1 day 15, cycle 1 day 22, cycle 2 day 15, and cycle 2 day 22 • Memory T cells ([…]) were measured by flow cytometry.

[1] = system: patients with relapsed or refractory DLBCL; test: Clinical study: response (International Workshop criteria for NHL), by schedule and biomarker; type: in vivo, human
Procedure: as §1

[2] = system: Human CD34+ bone marrow cells; test: In vitro myeloid differentiation assay; type: cell-based; parameters: dose or concentration left out as unconfirmed; details: after 14 days
Procedure: Human CD34+ bone marrow cells were seeded in stem cell factor, Fms-like tyrosine kinase 3 ligand (F1t3L) and granulocyte colony-stimulating factor (G-CSF), followed by 6 days with media plus G-CSF. Compound 1 […] was added continuously or on a 5-of-7-day (5/7 d) schedule. After 14 days, myeloid maturation stages were measured by CD34, CD33, and CD11b flow cytometry.

[3] = system: patients with relapsed or refractory DLBCL; test: Clinical study: dose-limiting toxicities, adverse events, dose modifications
Excerpt: Adverse events (AEs) were graded by NCI CTCAE v4.0, and responses were investigator assessed using International Workshop criteria for NHL.

[4] = 4 mg 5/7 d DLBCL-2 cohort (n=17)
[5] = 5 mg 5/7 d DLBCL-2 cohort (n=3)
[6] = AEs occurring in >20% of patients, 3 mg 28/28 d (n = 25)
[7] = AEs occurring in >20% of patients, 4 mg 5/7 d (n = 21)
[8] = Grade 3/4 AEs occurring in >1 patient, 3 mg 28/28 d (n = 25)
[9] = Grade 3/4 AEs occurring in >1 patient, 4 mg 5/7 d (n = 21)

Cc1nc2cccc(N)c2c(=O)n1C1CCC(=O)NC1=O (stereo not drawn) [Compound 1, 3-(5-amino-2-methyl-4-oxo-4H-quinazolin-3-yl)-piperidine-2,6-dione]
median increase from baseline in cytotoxic memory T cells (Memory T cells): 266% | median increase from baseline in helper memory T cells (Memory T cells): 75% | complete responses [CR] ([1]; 3 mg 28/28 d cohort (n=22)): 2 | overall response rate (ORR) ([1]; 3 mg 28/28 d cohort (n=22)): 27% | partial responses [PR] ([1]; 3 mg 28/28 d cohort (n=22)): 4 | CR [1, 4]: 2 | ORR [1, 4]: 39% | PR [1, 4]: 5 | CR [1, 5]: 1 | ORR [1, 5]: 100% | PR [1, 5]: 2 | PFS ([1]; Cell of Origin ABC): 99 days | PFS ([1]; Cell of Origin GCB): 100 days | ORR ([1]; Cell of Origin Non-ABC): 8/27 (30%) | PFS ([1]; Cell of Origin Non-ABC): 64 days | ORR ([1]; Cell of Origin Non-GCB): 6/18 (33%) | PFS ([1]; Cell of Origin Non-GCB): 74 days | PFS ([1]; Cell of Origin Unclassified): 51 days | PFS ([1]; MYC/BCL2 dual expressor Negative): 70 days | PFS ([1]; MYC/BCL2 dual expressor Positive): 100 days | decreased mature neutrophils compared with vehicle ([2]; continuous exposure): 90% | decreased mature neutrophils ([2]; exposure for 5/7 d): 50% | Relative dose intensity (median) ([3]; 3 mg 28/28 d (daily continuously, n = 25)): 78.6% | DLTs (kind): febrile neutropenia ([3]; 3 mg qd): Grade 3 febrile | DLTs (kind): neutropenia ([3]; 3 mg qd): Grade 4 | DLTs (kind): sepsis ([3]; 3 mg qd): Grade 4 sepsis | AE asthenia, patients ([3]; 4 mg 5/7 d): 29% | AE constipation, patients ([3]; 4 mg 5/7 d): 29% | AE neutropenia, patients ([3]; 4 mg 5/7 d): 52% | AE pyrexia, patients ([3]; 4 mg 5/7 d): 57% | DLTs (kind): neutropenia ([3]; 4 mg 5/7 d): Grade 4 | serious treatment-related AE neck pain ([3]; 4 mg 5/7 d): 5% | serious treatment-related AE pneumonia ([3]; 4 mg 5/7 d): 5% | serious treatment-related AE pneumonitis ([3]; 4 mg 5/7 d): 5% | Relative dose intensity (median) ([3]; 4 mg 5/7 d (n = 21)): 97.5% | DLTs reported ([3]; 4 mg 5/7 d, DLBCL-2 expansion, 19 DLT-evaluable patients): No DLTs | dose-limiting toxicities during cycle 1 ([3]; 4 mg, 21/28 d cohort (n=3)): no dose-limiting toxicities | patients requiring subsequent dose reduction due to grade 4 neutropenia ([3]; 4 mg, 21/28 d cohort (n=3)): 3 patients | DLTs (kind): febrile neutropenia ([3]; 5 mg 5/7 d): Grade 3 | DLTs (kind): pneumonitis ([3]; 5 mg 5/7 d): Grade 3 | MTD ([3]; 5/7 d schedule): 4 mg | NTD ([3]; 5/7 d schedule): 5 mg | severity of neutropenia ([3]; 5/7 d schedule (FIG. 2)): mitigated | non-tolerated dose (NTD) ([3]; 21/28 d schedule): 4 mg | Anemia [3, 6]: 13 (52) n (%) | Appetite [3, 6]: 1 (4) n (%) | Arrhythmia [3, 6]: 0 n (%) | Asthenia [3, 6]: 14 (56) n (%) | Constipation [3, 6]: 4 (16) n (%) | Cough [3, 6]: 10 (40) n (%) | Decreased [3, 6]: 3 (12) n (%) | Diarrhea [3, 6]: 5 (20) n (%) | Dyspnea [3, 6]: 4 (16) n (%) | Nausea [3, 6]: 4(16) n (%) | Neutropenia [3, 6]: 19 (76) n (%) | Peripheral edema [3, 6]: 7 (28) n (%) | Pyrexia [3, 6]: 10 (40) n (%) | Thrombocytopenia [3, 6]: 9 (36) n (%) | Vomiting [3, 6]: 4 (16) n (%) | Anemia [3, 7]: 5 (24) n (%) | Appetite [3, 7]: 3 (14) n (%) | Arrhythmia [3, 7]: 2 (10) n (%) | Asthenia [3, 7]: 6 (29) n (%) | Constipation [3, 7]: 6 (29) n (%) | Cough [3, 7]: 2 (10) n (%) | Decreased [3, 7]: 3 (14) n (%) | Diarrhea [3, 7]: 3 (14) n (%) | Dyspnea [3, 7]: 5 (24) n (%) | Nausea [3, 7]: 5 (24) n (%) | Neutropenia [3, 7]: 11 (52) n (%) | Peripheral edema [3, 7]: 4 (19) n (%) | Pyrexia [3, 7]: 12 (57) n (%) | Thrombocytopenia [3, 7]: 5 (21) n (%) | Vomiting [3, 7]: 5 (24) n (%) | DLTs, n (%) ([3]; DLBCL-2, 4 mg 5/7 d, 19 DLT evaluable): 0 n (%) | DLTs, n (%) ([3]; DLBCL-2, 4 mg 21/28 d, 3 DLT evaluable): 0 n (%) | DLTs, n (%) ([3]; DLBCL-2, 5 mg 5/7 d, 5 DLT evaluable): 2 (40) n (%) | Anemia [3, 8]: 3 (12) n (%) | Appetite [3, 8]: 0 n (%) | Arrhythmia [3, 8]: 0 n (%) | Asthenia [3, 8]: 5 (20) n (%) | Constipation [3, 8]: 0 n (%) | Cough [3, 8]: 0 n (%) | Decreased [3, 8]: 0 n (%) | Diarrhea [3, 8]: 0 n (%) | Dyspnea [3, 8]: 0 n (%) | Nausea [3, 8]: 0 n (%) | Neutropenia [3, 8]: 16 (64) n (%) | Peripheral edema [3, 8]: 0 n (%) | Pyrexia [3, 8]: 0 n (%) | Thrombocytopenia [3, 8]: 3 (12) n (%) | Vomiting [3, 8]: 0 n (%) | Anemia [3, 9]: 0 n (%) | Appetite [3, 9]: 0 n (%) | Arrhythmia [3, 9]: 2 (7) n (%) | Asthenia [3, 9]: 0 n (%) | Constipation [3, 9]: 0 n (%) | Cough [3, 9]: 0 n (%) | Decreased [3, 9]: 0 n (%) | Diarrhea [3, 9]: 0 n (%) | Dyspnea [3, 9]: 0 n (%) | Nausea [3, 9]: 0 n (%) | Neutropenia [3, 9]: 8 (38) n (%) | Peripheral edema [3, 9]: 0 n (%) | Pyrexia [3, 9]: 0 n (%) | Thrombocytopenia [3, 9]: 0 n (%) | Vomiting [3, 9]: 0 n (%) | DLTs, n (%) ([3]; NHL-1, 3 mg qd, 18 DLT evaluable): 3 (17) n (%)
